Tested on: caries
Assay: optimum photosensitiser concentration for photo-activated disinfection of caries
Conditions: at 635 nm
Protocol: The concentration of tolonium chloride will depend on the specific application and chosen wavelength. We have determined an optimum at 635 nm for caries of 12 μg/ml. Longer wavelengths and other applications especially periodontal disease where in vivo dilution may occur are likely to need greater concentrations, whereas shorter wavelengths may require reduced concentrations. Preferably, therefore, the concentration should fall within an overall range between 1 and 200 μg/ml. […] The reduction in efficacy as the concentration increases beyond the optimum is thought to be due to the accompanying increasing absorption limiting the light transmission through the treatment zone.

## Cc1cc2nc3ccc(N(C)C)cc3[s+]c2cc1N [tolonium chloride]
  optimum concentration: 12 µg/mL

— patent publication US20080214530A1, “Photo-Activated Disinfection” (priority 2003, published 2008)
